# Data: PubChem BioAssay (NCI)
#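 GI50 = concentration required for 50% inhibition of growth. TGI marks complete inhibition of growth.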
# Assays:
# Assay in all cases: inhibition of tumour cell growth, NCI panel, 384-well format
# [1] = system: SNB-75 CNS
# [2] = system: NCI-H522 lung
# [3] = system: SK-MEL-5 melanoma
# [4] = system: MDA-MB-435 melanoma
# [5] = system: HCT-15 colon
# [6] = system: SK-MEL-2 melanoma
# [7] = system: OVCAR-4 ovarian
# [8] = system: KM12 colon
# [9] = system: ACHN renal
# [10] = system: MOLT-4 leukemia
# [11] = system: RPMI-8226 leukemia
# [12] = system: HS 578T breast
# [13] = system: M14 melanoma
# [14] = system: MCF7 breast
# [15] = system: SW-620 colon
# [16] = system: SNB-19 CNS
# [17] = system: A549 NSCLC
# [18] = system: SF-268 CNS
# [19] = system: CAKI-1 renal
# [20] = system: T-47D breast
# [21] = system: HL-60(TB) leukemia
# [22] = system: MDA-MB-468 breast
# [23] = system: SF-295 CNS
# [24] = system: COLO 205 colon
# [25] = system: SK-MEL-28 melanoma
# [26] = system: NCI-H460 NSCLC
# [27] = system: HOP-62 NSCLC
# [28] = system: SR leukemia
# [29] = system: OVCAR-3 ovarian
# [30] = system: IGROV1 ovarian
# [31] = system: HT29 colon
# [32] = system: CCRF-CEM leukemia
# [33] = system: UACC-62 melanoma
# [34] = system: DU-145 prostate
# [35] = system: MDA-MB-231 breast
# [36] = system: 786-0 renal
# [37] = system: RXF 393 renal
# [38] = system: OVCAR-8 ovarian
# [39] = system: SF-539 CNS
# [40] = system: PC-3 prostate
# [41] = system: NCI-H226 lung
# [42] = system: MALME-3M melanoma
# [43] = system: OVCAR-5 ovarian
# [44] = system: BT-549 breast
# [45] = system: NCI-H322M lung
# [46] = system: EKVX NSCLC
# [47] = system: TK-10 renal
# [48] = system: NCI/ADR-RES ovarian
# [49] = system: NCI-H23 lung
# [50] = system: U251 glioblastoma
# [51] = system: HOP-92 NSCLC
# [52] = system: UACC-257 melanoma
# [53] = system: SK-OV-3 ovarian
# [54] = system: SN12C renal
smiles,measurement,setting,value
NC(=S)N/N=C/c1ncccc1N,GI50,[1],344 nM
same,TGI,[1],2900 nM
same,GI50,[2],561 nM
same,TGI,[2],7760 nM
same,GI50,[3],530 nM
same,TGI,[3],1960 nM
same,GI50,[4],7800 nM
same,TGI,[4],> 100000 nM
same,GI50,[5],3470 nM
same,TGI,[5],> 100000 nM
same,GI50,[6],450 nM
same,TGI,[6],772 nM
same,GI50,[7],4390 nM
same,TGI,[7],9350 nM
same,GI50,[8],3520 nM
same,TGI,[8],24800 nM
same,GI50,[9],281 nM
same,TGI,[9],585 nM
same,GI50,[10],194 nM
same,TGI,[10],342 nM
same,GI50,[11],203 nM
same,TGI,[11],373 nM
same,GI50,[12],654 nM
same,TGI,[12],> 100000 nM
same,GI50,[13],586 nM
same,TGI,[13],1870 nM
same,GI50,[14],487 nM
same,TGI,[14],10800 nM
same,GI50,[15],697 nM
same,TGI,[15],21400 nM
same,GI50,[16],709 nM
same,TGI,[16],4140 nM
same,GI50,[17],1450 nM
same,TGI,[17],> 100000 nM
same,GI50,[18],318 nM
same,TGI,[18],789 nM
same,GI50,[19],494 nM
same,TGI,[19],15800 nM
same,GI50,[20],1330 nM
same,TGI,[20],7190 nM
same,GI50,[21],233 nM
same,TGI,[21],428 nM
same,GI50,[22],1410 nM
same,TGI,[22],3560 nM
same,GI50,[23],1100 nM
same,TGI,[23],3860 nM
same,GI50,[24],879 nM
same,TGI,[24],2230 nM
same,GI50,[25],2670 nM
same,TGI,[25],41600 nM
same,GI50,[26],413 nM
same,TGI,[26],1570 nM
same,GI50,[27],357 nM
same,TGI,[27],1410 nM
same,GI50,[28],192 nM
same,TGI,[28],337 nM
same,GI50,[29],532 nM
same,TGI,[29],8640 nM
same,GI50,[30],816 nM
same,TGI,[30],20500 nM
same,GI50,[31],2210 nM
same,TGI,[31],43400 nM
same,GI50,[32],291 nM
same,TGI,[32],622 nM
same,GI50,[33],249 nM
same,TGI,[33],581 nM
same,GI50,[34],584 nM
same,TGI,[34],3630 nM
same,GI50,[35],616 nM
same,TGI,[35],11900 nM
same,GI50,[36],242 nM
same,TGI,[36],540 nM
same,GI50,[37],2080 nM
same,TGI,[37],23600 nM
same,GI50,[38],241 nM
same,TGI,[38],499 nM
same,GI50,[39],212 nM
same,TGI,[39],451 nM
same,GI50,[40],10600 nM
same,TGI,[40],28200 nM
same,GI50,[41],1700 nM
same,TGI,[41],3450 nM
same,GI50,[42],378 nM
same,TGI,[42],933 nM
same,GI50,[43],2690 nM
same,TGI,[43],8730 nM
same,GI50,[44],675 nM
same,TGI,[44],3940 nM
same,GI50,[45],7280 nM
same,TGI,[45],> 100000 nM
same,GI50,[46],3280 nM
same,TGI,[46],18300 nM
same,GI50,[47],8170 nM
same,TGI,[47],> 100000 nM
same,GI50,[48],1440 nM
same,TGI,[48],3040 nM
same,GI50,[49],257 nM
same,TGI,[49],518 nM
same,GI50,[50],314 nM
same,TGI,[50],855 nM
same,GI50,[51],470 nM
same,TGI,[51],21800 nM
same,GI50,[52],3170 nM
same,TGI,[52],15000 nM
same,GI50,[53],2670 nM
same,TGI,[53],7610 nM
same,GI50,[54],730 nM
same,TGI,[54],3140 nM
